# Results taken from patent publication US8022103B2, “Ester prodrugs of prostratin and related phorbol compounds” (Salvia Sciences, Inc., priority 2005, dated 2011).
# Where two headings read alike, the source gives them in different places.
# How the values were obtained:
# Assay type in all cases: cell-based
# [1] = tested on: CEM-SS cells; experiment: MTS cell viability in CEM-SS cells (cytotoxicity); settings: for TC50: MTS; for Cytotoxicity: at the concentrations evaluated
# Protocol: Cell Preparation. CEM-SS cells were passaged in T-75 flasks prior to use in the antiviral assay. On the day preceding the assay, the cells were split 1:2 to assure they were in an exponential growth phase at the time of infection. Total cell and viability quantification was performed using a hemacytometer and trypan blue exclusion. Cell viability was greater than 95% for the cells to be utilized in the assay. The cells were resuspended at 5×10^4 cells/ml in tissue culture medium and added to the drug-containing microliter plates in a volume of 50 μl.
# MTS Staining for Cell Viability. At assay termination, the assay plates were stained with the soluble tetrazolium-based dye MTS (Cell Titer Reagent Promega) to determine cell viability and quantify compound toxicity. At termination of the assay, 20 μL of MTS reagent was added per well. The microtiter plates were then incubated 4 6 hrs at 37° C. Adhesive plate sealers were used in place of the lids, the sealed plate was inverted several times to mix the soluble formazan product and the plate was read spectrophotometrically at 490/650 ηm with a Molecular Devices Vmax plate reader.
# Data Analysis. Using an in-house computer program, IC50 (50%, inhibition of virus replication), IC95 (95%, inhibition of virus replication), TC50 (50% reduction in cell viability), TC95 (95% reduction in cell viability), and a therapeutic index (TI=TC50/IC50) were determined.
# [2] = tested on: HIV-1Ba-L; experiment: PBMC antiviral assay, HIV-1Ba-L; settings: human PBMCs
# Protocol: Compounds SA-101A and SA-101B were tested for antiviral activity against HIV-1 in peripheral blood mononuclear cells (PBMC) acutely infected with the HIV-1 isolates. PBMCs were derived from normal HIV-1 negative donors, and cultured under conditions which promote cell survival and HIV replication. Fresh human blood was obtained commercially from Biological Specialty Corporation (Colmar, Pa.). The low passage clinical isolates HIV-1Ba-L, HIVIIIB, and SIVmac251 were from the NIAID AIDS Research and Reference Reagent Program. Immediately before use, pre-titered aliquot of the viruses were removed from storage in a freezer (−80° C.) and thawed rapidly to room temperature in a biological safety cabinet. Phytohemagglutinin (PHA-P) was obtained from Sigma (St. Louis, Mo.) and recombinant IL-2 was obtained from R&D Systems Inc. (Minneapolis, Minn.). Antiviral activity was tested from a high-test concentration of 100 μM or 100 μg/ml with nine ½-log serial dilutions of the compound to derive applicable IC50 (concentration inhibition virus replication by 50%), IC90 (concentration inhibition virus replication by 90%), TC50 (concentration decreasing cell viability by 50%) and TI (therapeutic index: TC50/IC50) values.
# Preparation of PMBC. Fresh Human PBMCs, Seronegative for HIV and HBV, were isolated from screened donors (Interstate Blood Bank, Inc. Memphis, Tenn.). Cells were pelleted/washed 2-3 times by low speed centrifugation and resuspensded in PBS to remove contaminating platelets. The leukophoresed blood was then diluted 1:1 with Dulbecco's Phosphate Buffered Saline (DPBS) and layered over 14 mL of Lymphocyte Separation Medium (LSM; Cellgro® by Mediatech, Inc.; density 1.078+/−0.002 g/ml; Cat. # 85-072-CL) in a 50 mL centrifuge tube and then centrifuged for 30 minutes at 600×g. Banded PBMCs were gently aspirated from the resulting interface and subsequently washed 2× with PBS by low speed centrifugation. After the final wash, cells were enumerated by trypan blue exclusion and re-suspended at 1×10^7 cells/mL in RPMI 1640 supplemented with 15% Fetal Bovine Serum (FBS), and 2 mM L-glutamine, 4 μg/mL Phytohemagglutinin (PHA-P, Sigma). The cells were allowed to incubate for 48-72 hours at 37° C. After incubation, PBMCs were centrifuged and re-suspended in RPMI 1640 with 15% FBS, 2 mM L-glutamine, 100 U/mL penicillin, 100 μg/mL streptomycin, 10 μg/mL gentamycin, and 20 U/mL recombinant human IL-2 (R&D Systems, Inc). […]
# PMBC assay. […] Pooling (mixing) of mononuclear cells from more than one donor is used to minimize the variability observed between individual donors, which results from quantitative and qualitative differences in HIV infection and overall response to the PHA and IL-2 of primary lymphocyte populations. […]
# [3] = tested on: HepG2-2.2.15 cells; experiment: Dye uptake cell viability in HepG2-2.2.15 cells; settings: at the concentrations evaluated
# Protocol: HepG2 2.2.15 Antiviral Assay. The assay developed is similar to that described ion the literature (Korba et al., 1991, Antiviral Res. 15: 217-228; Korba et al., 1992, Antiviral Res. 19: 55-70) with the exception that viral DNA detection and quantification have been improved and simplified (Buckwold et al., 2004, Antiviral Res. 61(1): 57-62). Briefly, HepG2-2.2.15 cells are plated in 96-well microtiter plates. Only the interior wells are utilized to reduce “edge effects” observed during cell culture; the exterior wells are filled with complete medium to help minimize sample evaporation. After 16-24 hours the confluent monolayer of HepG2-2.2.15 cells is washed and the medium is replaced with complete medium containing various concentrations of a test compound in triplicate. […] Six days following the initial administration of the test compound, the cell culture supernatant is collected, treated with pronase and DNAse and then used in a real-time quantitative TaqMan PCR assay. The PCR-amplified HBV DNA is detected in real-time by monitoring increases in fluorescence signals that result from the exonucleolytic degradation of a quenched fluorescent probe molecule that hybridizes to the amplified HBV DNA. […] Antiviral activity is calculated from the reduction in HBV DNA levels (IC50). […] The therapeutic index (TI) is calculated as TC50/IC50.
Structure (SMILES),TC50 [1] [µg/mL],Cytotoxicity [1],IC50 ([2]; 40% Human AB serum) [µg/mL],IC90 ([2]; 40% Human AB serum) [µg/mL],Cytotoxicity [3],"IC50 ([2]; Human immunodeficiency virus 1, PBMC, read-out: IC50) [µg/mL]","IC90 ([2]; Human immunodeficiency virus 1, PBMC, read-out: IC90) [µg/mL]"
"CC(=O)OC12CC(C)C3(O)C(C=C(COC(=O)CCC(=O)O)CC4(O)C(=O)C(C)=CC43)C1C2(C)C (stereo not shown) [SA-101B, Prostratin Succinate]",>0.50,no cytotoxicity,0.0007,>1.00,no cytotoxicity,,
"CC(=O)O[C@@]12C[C@@H](C)[C@@]3(O)[C@@H](C=C(CO)C[C@]4(O)C(=O)C(C)=C[C@@H]34)[C@@H]1C2(C)C [SA-101A, 12-deoxyphorbol 13-acetate]",>0.50,no cytotoxicity,,,no cytotoxicity,0.05,0.39
